PMC12631002, “Bioactivity Profiles of Progressively Ring‐Fluorinated Cyclohexyl Motifs in the WKYMVm Peptide as Formylpeptide FPR2 Agonists and in Keto‐Piperazines as Antitrypanosome Agents” (Chembiochem, 2025)
Where two headings read alike, the source gives them in different places. Numbered stars: 1 amine (or outer) side, 2 acyl side, 3 side chain; on linkers, the order of the positions; unused ones are H or OH. Square brackets hold non-standard residues; d marks the D form. Ends that are not written are not given here. Peptide text beside a SMILES is read from it. X3 = O=C([C@H](C[C@@H]1[C@H](F)C[C@H](F)C[C@@H]1F)N[*:1])[*:2]; X2 = O=C([C@H](C[C@@H]1C[C@H](F)C[C@H](F)C1)N[*:1])[*:2]; X1 = O=C([C@H](C[C@H]1CC[C@@H](F)CC1)N[*:1])[*:2]; Phe(F5) = N[C@@H](Cc1c(F)c(F)c(F)c(F)c1F)C(=O)O; Phe(4-F) = N[C@@H](Cc1ccc(F)cc1)C(=O)O

How the values were obtained:
FPR2 [1] = target: T1, FPR2 (Homo sapiens, UniProt P25090); test: BRET analysis of mini-Gsi recruitment; format: cell-based; parameters: expressed in transfected cells; host or cells: HEK293, transient transfection; conditions: HEK293, FPR2-Rluc8 + mGsi-Venus, 37 °C
T1 sequence (P25090 1-351): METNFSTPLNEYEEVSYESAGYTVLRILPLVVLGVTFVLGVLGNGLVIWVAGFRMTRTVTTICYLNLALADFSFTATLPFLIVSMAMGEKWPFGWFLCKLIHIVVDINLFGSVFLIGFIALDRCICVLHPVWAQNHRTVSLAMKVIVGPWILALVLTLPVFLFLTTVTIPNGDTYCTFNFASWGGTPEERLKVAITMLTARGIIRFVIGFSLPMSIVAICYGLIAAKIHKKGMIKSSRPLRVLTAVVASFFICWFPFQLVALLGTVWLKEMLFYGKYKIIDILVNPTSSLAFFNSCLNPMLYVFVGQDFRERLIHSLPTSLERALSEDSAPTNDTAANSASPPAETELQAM
Experimental: (§1) Since these modifications of WKYMVm altered the relative affinity of the compounds to bind to FPR2, a further series of bioluminescence resonance energy transfer (BRET) assays were conducted to determine if there was any change in efficacy, specifically the ability to recruit molecular effectors such as G‐protein or β‐arrestin.^[ [28], [29] ^] Briefly, HEK293 cells were transiently transfected with FPR2‐Rluc8 (donor) in combination with and either mGsi‐Venus or β‐arrestin 2‐YFP (acceptors) and replated after 24 h into white opaque 96‐well plates. Cells were assayed 24 h later at 37 °C, in HEPES‐buffered saline solution (HBSS) with coelenterazine H (5 μM). Cells were then stimulated with increasing concentrations of WKYMVm or analogs. Luminescence and fluorescence values were measured at 460/30 nm (FPR2) and […] (mini‐Gsi or β‐arrestin protein), respectively, and the acceptor: donor ratio was determined, normalized by subtraction of the ratio observed in untreated cells (Figure 7 ). […]
(§2) BRET analysis of β-Arrestin and mini-Gsi recruitment: HEK293 cells were grown on 6 well plates until 90-95% confluency was reached. […] Cells were then stimulated with increasing concentrations of WKYMVm and analysed using ClarioStar Plus plate reader (BMG Labtech) at 10 minutes post agonist addition. […]

FPR2 [2] = target: T2, FPR2 (Homo sapiens, UniProt P25090); test: BRET analysis of β-arrestin 2 recruitment; format: cell-based; conditions: HEK293, FPR2-Rluc8 + β-arrestin 2-YFP, 37 °C
T2 construct: expressed in transfected cells; host or cells: HEK293, transient transfection
Experimental: as §1, §2
T2 sequence (P32121 whole entry partner, one chain of several): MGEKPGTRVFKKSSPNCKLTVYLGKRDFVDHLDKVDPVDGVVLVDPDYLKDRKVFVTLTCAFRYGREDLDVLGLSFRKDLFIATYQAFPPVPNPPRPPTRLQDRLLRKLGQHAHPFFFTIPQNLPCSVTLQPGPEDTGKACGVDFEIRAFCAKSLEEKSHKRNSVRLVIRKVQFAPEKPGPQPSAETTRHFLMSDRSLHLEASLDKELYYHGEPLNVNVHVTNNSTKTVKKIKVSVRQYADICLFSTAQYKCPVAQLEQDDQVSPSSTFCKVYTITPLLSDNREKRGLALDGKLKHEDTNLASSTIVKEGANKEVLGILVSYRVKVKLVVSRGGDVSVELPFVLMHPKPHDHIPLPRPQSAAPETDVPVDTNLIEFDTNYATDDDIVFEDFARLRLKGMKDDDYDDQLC

FPR2 [3] = target: T1, FPR2; test: Competition binding against K(5/6-FAM)-WKYMVm, flow cytometry; parameters: FLAG (N); expressed in transfected cells; conditions: for IC50: binding affinity (order of magnitude), order of magnitude
Experimental: Subsequently, mean fluorescence was measured using flow cytometry (Attune NxT). Data was expressed as a percentage of the maximum binding (i.e., no competitor) and errors were determined as a result of three independent experiments performed in duplicate (Figure 5 ).
Cell Culture and Transfection: Constructs were either transiently or stably expressed in native Human Embryonic Kidney 293 (HEK293) cells and maintained in DMEM containing 10% FCS. Transfections were performed using PEI at a ratio of DNA:PEI of 1:4 for all studies. […]
Competition Binding: Competition binding was performed using a fluorescently labelling ligand using an assay analogous to the classical radiolabelled method.[1] Briefly, human embryonic kidney 293 (HEK293) cells stably expressing human Formyl […]
and incubated for 90 min on ice in the dark to allow equilibrium binding. Subsequently, mean fluorescence was measured by flow cytometry using the Attune NxT. Data was expressed as a percentage of maximum binding (i.e. no competitor) and analysed via nonlinear regression one site model of equilibrium. IC50 values were determined using GraphPad PRISM software.

Log P assessment (HPLC) = format: physicochemical
Text: (§3) Accordingly N‐Boc amino acid esters 20a–d were hydrolyzed to their free carboxylic acids 25a–d and then progressed in each case to the corresponding Weinreb–Nahm amides^[ [33] ^] 26a–d. N‐Boc deprotection followed by coupling to N‐Boc‐tryptophan generated dipeptides 27a–d as the required precursors for cyclization. The intramolecular Pictet–Spengler condensations, followed a previous protocol^[ [19] ^] and 4‐monofluoro 28a, 3,5‐difluoro‐ 28b, and 2,3,4,5,6‐pentafluoro‐ 28d keto‐piperazines could be prepared following this method. It is noteworthy that the pentafluoro‐ analog was accompanied by what appeared to be a high level of defluorinated side products, however 28d was conveniently purified by HPLC rather than column chromatography. […] Thus, 4‐monofluoro‐ 28a, 3,5‐difluoro‐ 28b, and 2,3,4,5,6‐pentafluoro‐ 28d cyclohexyl‐amino acid tryptophan diketopiperazines were prepared and explored in antitrypanosomal assays. Given the importance of molecular lipophilicity in the context of medicinal chemistry, a Log P assessment (HPLC) was made of the diketopiperazines products 28a, 28b, and 28d as illustrated in Table 1 . As anticipated, there is an increase in polarity (LogP reduction) as the number of fluorines increases. We also know from previous work[[6b]] that the Ph ring is more polar than cyclohexane but less polar than the progressively fluorinated cyclohexane rings. The keto‐piperazines 28a, 28b, and 28d were assayed^[ [20] ^] against growing cells of T. brucei and T. cruzi, as well as the human cell line, HeLa and the data is presented in Table 1.

HeLa = test: Mammalian cell activity; format: cell-based; conditions: Homo sapiens
Experimental: Bioactivities assays of Janus face Tryptophan […]
Fluorescence was recorded using a FLx
(§4) 800 plate reader (BioTek) with an excitation wavelength 530–535 nm and emission wavelength of 590–610 nm using Gen5 Reader Control 2.0 Software (BioTek). EC50 values were determined using a 4-parameter non-linear logistic regression equation using GraFit 5.0 (Erithacus Software). SD values were calculated based on curve fitting to n biological replicates performed in parallel.

T. brucei [4] = test: Trypanocidal activity against growing cells; format: cell-based, Trypanosoma brucei; conditions: for EC50: Trypanosoma brucei; for trypanocidal activity against T. brucei: comparison within series and with 29
Text: as §3
Bioactivities assays of Janus face Tryptophan
as §4, with “Parasites were grown in different medium (e.g. T. brucei was grown in HMI-11 medium) with 10% heat-inactivated foetal bovine serum. parasites were counted using CASY TT Cell Counter. Fluorescence was recorded using a FLx 800” for “800”

[5] = parameters: method as in PMID 29732086; conditions: ref 6a; cited from earlier work
T. brucei [6] = tested on: T. brucei; parameters: method as in PMID 34927802; conditions: previously reported; cited from earlier work
[7] = target: T3, formyl-peptide receptor type 2 (FPR2), on HEK293 cells (human, UniProt P25090 1-351); test: FACS; competition with K(5/6-FAM)-WKYMVm; printed as Log IC50 -5.33
T3 chain: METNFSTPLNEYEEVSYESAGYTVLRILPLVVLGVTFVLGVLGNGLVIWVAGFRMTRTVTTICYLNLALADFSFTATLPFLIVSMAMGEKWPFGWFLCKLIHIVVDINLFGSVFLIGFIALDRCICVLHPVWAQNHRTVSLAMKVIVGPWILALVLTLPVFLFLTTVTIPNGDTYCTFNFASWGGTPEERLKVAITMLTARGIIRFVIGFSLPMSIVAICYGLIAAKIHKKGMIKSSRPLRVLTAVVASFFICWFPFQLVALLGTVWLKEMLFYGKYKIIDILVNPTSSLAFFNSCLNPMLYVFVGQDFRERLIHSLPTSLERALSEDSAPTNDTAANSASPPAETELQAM

[8] = target: T3, formyl-peptide receptor type 2 (FPR2), …; test: FACS; competition with K(5/6-FAM)-WKYMVm; printed as Log IC50 -5.80
[9] = target: T3, formyl-peptide receptor type 2 (FPR2), …; test: FACS; competition with K(5/6-FAM)-WKYMVm; printed as Log IC50 -7.24
[10] = target: T3, formyl-peptide receptor type 2 (FPR2), …; test: FACS; competition with K(5/6-FAM)-WKYMVm; printed as Log IC50 -6.29

## CSCC[C@H](NC(=O)[C@H](C[C@H]1CC[C@@H](F)CC1)NC(=O)[C@H](CCCCN)NC(=O)[C@@H](N)Cc1c[nH]c2ccccc12)C(=O)N[C@H](C(=O)N[C@H](CCSC)C(N)=O)C(C)C [23a] (H-WK[X1]MV[dM]-NH2; N-terminus assumed)
FPR2 [1]
  efficacy of Gi (mini-Gsi) recruitment: comparable efficacy
FPR2 [2]
  efficacy of β-arrestin recruitment: comparable efficacy
FPR2 [3]; comparison within the peptide series
  relative binding affinity: highest affinity but significantly weaker than that of the WKYMVm 13

## CSCC[C@H](NC(=O)[C@H](C[C@@H]1C[C@H](F)C[C@H](F)C1)NC(=O)[C@H](CCCCN)NC(=O)[C@@H](N)Cc1c[nH]c2ccccc12)C(=O)N[C@H](C(=O)N[C@H](CCSC)C(N)=O)C(C)C [23b] (H-WK[X2]MV[dM]-NH2)
FPR2 [3]
  IC50: ~100 nM

## CSCC[C@H](NC(=O)[C@H](C[C@@H]1[C@H](F)C[C@H](F)C[C@@H]1F)NC(=O)[C@H](CCCCN)NC(=O)[C@@H](N)Cc1c[nH]c2ccccc12)C(=O)N[C@H](C(=O)N[C@H](CCSC)C(N)=O)C(C)C [23c] (H-WK[X3]MV[dM]-NH2)
FPR2 [3]
  IC50: ~1000 nM

## O=C1NC(CC2CCC(F)CC2)C2NC1Cc1c2[nH]c2ccccc12 (stereo not shown) [28a]
Log P assessment (HPLC)
  chromatographic logP: 3.02
HeLa
  EC50: 105000 ± 6250 nM
T. brucei [4]
  EC50: 10700 ± 460 nM
  trypanocidal activity against T. brucei: best compound

## O=C1NC(CC2CC(F)CC(F)C2)C2NC1Cc1c2[nH]c2ccccc12 (stereo not shown) [28b]
Log P assessment (HPLC)
  chromatographic logP: 2.92
T. brucei [4]
  EC50: 11300 ± 730 nM

## O=C1NC(CC2C(F)C(F)C(F)C(F)C2F)C2NC1Cc1c2[nH]c2ccccc12 (stereo not shown) [28d]
Log P assessment (HPLC)
  chromatographic logP: 2.58
T. brucei [4]
  EC50: 22000 ± 2120 nM
  trypanocidal activity against T. brucei: least active compound

## O=CC(CC1CCNC1=O)NC(=O)C(CC1C(F)C(F)C(F)C(F)C1F)NC(=O)c1cc2ccccc2[nH]1 (stereo not shown) [compound 8]
[5]
  Log P: 0.69

## COC(=O)C=CC(CC1CCNC1=O)NC(=O)C(CC1C(F)C(F)C(F)C(F)C1F)NC(=O)C=Cc1ccccc1 (stereo not shown) [compound 9]
[5]
  Log P: 1.21

## CSCC[C@H](NC(=O)[C@H](Cc1ccc(O)cc1)NC(=O)[C@H](CCCCN)NC(=O)[C@@H](N)Cc1c[nH]c2ccccc12)C(=O)N[C@H](C(=O)N[C@H](CCSC)C(N)=O)C(C)C [compound 13, Trp‐Lys‐Tyr‐Met‐Val‐D‐Met‐NH2, reference compound]
FPR2 [1]
  efficacy of Gi (mini-Gsi) recruitment: most efficacious
FPR2 [2]
  efficacy of β-arrestin recruitment: most efficacious

## CSCC[C@H](NC(=O)[C@H](Cc1ccc(F)cc1)NC(=O)[C@H](CCCCN)NC(=O)[C@@H](N)Cc1c[nH]c2ccccc12)C(=O)N[C@H](C(=O)N[C@H](CCSC)C(N)=O)C(C)C [compound 24] (H-WK[Phe(4-F)]MV[dM]-NH2)
FPR2 [3]
  IC50: ~100 nM

## CSCC[C@H](NC(=O)[C@H](Cc1c(F)c(F)c(F)c(F)c1F)NC(=O)[C@H](CCCCN)NC(=O)[C@@H](N)Cc1c[nH]c2ccccc12)C(=O)N[C@H](C(=O)N[C@H](CCSC)C(N)=O)C(C)C [compound 25] (H-WK[Phe(F5)]MV[dM]-NH2)
FPR2 [3]
  IC50: ~1000 nM

## O=C1NC(Cc2ccccc2)C2NC1Cc1c2[nH]c2ccccc12 (stereo not shown) [compound 29]
T. brucei [6]
  EC50: 52100 ± 3500 nM

## WK[all‑cis pentafluorocyclohexylalanine]MV[dM]-NH2 [W-peptide analog 23d (all-cis pentafluorocyclohexylalanine in place of Tyr3 of WKYMVm)]
[7]
  IC50: 4680 nM

## WK[all‑cis trifluorocyclohexylalanine]MV[dM]-NH2 [W-peptide analog 23c (all-cis trifluorocyclohexylalanine in place of Tyr3 of WKYMVm)]
[8]
  IC50: 1580 nM

B1: W-peptide analog 24 (4-fluorophenylalanine in place of Tyr3 of WKYMVm) (peptide)
peptide: WK[Phe(4-F)]MV[dM]-NH2
modifications: N-terminus assumed
SMILES: CSCC[C@H](NC(=O)[C@H](Cc1ccc(F)cc1)NC(=O)[C@H](CCCCN)NC(=O)[C@@H](N)Cc1c[nH]c2ccccc12)C(=O)N[C@H](C(=O)N[C@H](CCSC)C(N)=O)C(C)C
notes: last residue D-methionine; also called 4-fluorophenyl-modified peptide 24; 4-fluorophenylalanine analog 24; source: synthetic peptide (microwave-assisted SPPS, preparative HPLC)
[9]
  IC50: 57.5 nM

B2: W-peptide analog 25 (pentafluoroaryl phenylalanine in place of Tyr3 of WKYMVm) (peptide)
peptide: WK[Phe(F5)]MV[dM]-NH2
modifications: N-terminus assumed
SMILES: CSCC[C@H](NC(=O)[C@H](Cc1c(F)c(F)c(F)c(F)c1F)NC(=O)[C@H](CCCCN)NC(=O)[C@@H](N)Cc1c[nH]c2ccccc12)C(=O)N[C@H](C(=O)N[C@H](CCSC)C(N)=O)C(C)C
notes: last residue D-methionine; also called pentafluoroaryl motif; source: synthetic peptide (microwave-assisted SPPS, preparative HPLC)
[10]
  IC50: 513 nM
